Reference: the supplement of paper PMC10307832

How the values were obtained:
Assay in all cases: relative viability (nuclei count vs DMSO), 5 days (fraction); higher = more cells survive
[1] = compound: Cn1cc(-c2cnn3c(N)c(Br)c([C@@H]4CCCNC4)nc23)cn1 + Nc1nc2[nH]cc(CCc3ccc(C(=O)N[C@@H](CCC(=O)O)C(=O)O)cc3)c2c(=O)[nH]1 [Pemetrexed] (partner 0.2 µM)
How it was run: (§1)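 A single step with final 0.05% Triton X-100, 1% formaldehyde and 1 ug/ml Hoechst fixed the cells and stained nuclei 5 days after treatment. Lung cancer cell lines in 1536-well plates had been treated by pin tool the day after seeding with one drug alone or a fixed anchor-drug dose plus five library-drug doses (not always all listed) in √10 steps, and nuclei were counted on 4× images. Relative viability is the ratio of nuclei in treated wells to nuclei in vehicle wells, taken as the median of duplicate plates.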

[2] = compound: Cn1cc(-c2cnn3c(N)c(Br)c([C@@H]4CCCNC4)nc23)cn1 + COc1cccc2cc(-c3nc([C@H]4CC[C@H](C(=O)O)CC4)n4ncnc(N)c34)[nH]c12 [OSI-027] (partner 0.5 µM)
How it was run: as §1

[3] = compound: Cn1cc(-c2cnn3c(N)c(Br)c([C@@H]4CCCNC4)nc23)cn1 + COc1cc2c(Oc3ccc(NC(=O)C4(C(=O)Nc5ccc(F)cc5)CC4)cc3F)ccnc2cc1OCCCN1CCOCC1 [Foretinib] (partner 0.25 µM)
How it was run: as §1

[4] = compound: Cn1cc(-c2cnn3c(N)c(Br)c([C@@H]4CCCNC4)nc23)cn1 + NC(=O)Nc1cc(-c2cccc(F)c2)sc1C(=O)N[C@H]1CCCNC1 [AZD7762] (partner 0.2 µM)
How it was run: as §1

Cell Line: NCI-H661
- relative viability ([1]; first compound 0.05 µM): 0.98
- relative viability ([1]; first compound 0.1581 µM): 0.635
- relative viability ([1]; first compound 0.5 µM): 0.667
- relative viability ([1]; first compound 1.581 µM): 0.754
- relative viability ([1]; first compound 5 µM): 0.588
- relative viability ([2]; first compound 0.05 µM): 0.711
- relative viability ([2]; first compound 0.1581 µM): 0.789
- relative viability ([2]; first compound 0.5 µM): 0.718
- relative viability ([2]; first compound 1.581 µM): 0.513
- relative viability ([2]; first compound 5 µM): 0.511
- relative viability ([3]; first compound 0.05 µM): 1.05
- relative viability ([3]; first compound 0.1581 µM): 0.991
- relative viability ([3]; first compound 0.5 µM): 0.979
- relative viability ([3]; first compound 1.581 µM): 1.02
- relative viability ([3]; first compound 5 µM): 0.932

Cell Line: UMC-11
- relative viability ([1]; first compound 0.05 µM): 0.841
- relative viability ([1]; first compound 0.1581 µM): 0.753
- relative viability ([1]; first compound 0.5 µM): 0.626
- relative viability ([1]; first compound 1.581 µM): 0.657
- relative viability ([1]; first compound 5 µM): 0.429
- relative viability ([2]; first compound 0.05 µM): 0.495
- relative viability ([2]; first compound 0.1581 µM): 0.427
- relative viability ([2]; first compound 0.5 µM): 0.438
- relative viability ([2]; first compound 1.581 µM): 0.267
- relative viability ([2]; first compound 5 µM): 0.279
- relative viability ([3]; first compound 0.05 µM): 1
- relative viability ([3]; first compound 0.1581 µM): 0.984
- relative viability ([3]; first compound 0.5 µM): 0.851
- relative viability ([3]; first compound 1.581 µM): 0.773
- relative viability ([3]; first compound 5 µM): 0.51

Cell Line: NCI-H1650
- relative viability ([1]; first compound 0.05 µM): 0.368
- relative viability ([1]; first compound 0.1581 µM): 0.288
- relative viability ([1]; first compound 0.5 µM): 0.292
- relative viability ([1]; first compound 1.581 µM): 0.239
- relative viability ([1]; first compound 5 µM): 0.224
- relative viability ([2]; first compound 0.1581 µM): 0.634
- relative viability ([2]; first compound 0.5 µM): 0.726
- relative viability ([2]; first compound 1.581 µM): 0.467
- relative viability ([2]; first compound 5 µM): 0.345
- relative viability ([3]; first compound 0.1581 µM): 1.3
- relative viability ([3]; first compound 0.5 µM): 1.2
- relative viability ([3]; first compound 1.581 µM): 1.05
- relative viability ([3]; first compound 5 µM): 0.658

Cell Line: EBC-1
- relative viability ([3]; first compound 0.05 µM): 0.107
- relative viability ([3]; first compound 0.1581 µM): 0.0968
- relative viability ([3]; first compound 0.5 µM): 0.0834
- relative viability ([3]; first compound 1.581 µM): 0.0926
- relative viability ([3]; first compound 5 µM): 0.0939

Cell Line: SK-LU-1
- relative viability ([1]; first compound 0.05 µM): 0.955
- relative viability ([1]; first compound 0.1581 µM): 0.612
- relative viability ([1]; first compound 0.5 µM): 0.536
- relative viability ([1]; first compound 1.581 µM): 0.321
- relative viability ([1]; first compound 5 µM): 0.227
- relative viability ([2]; first compound 0.05 µM): 0.39
- relative viability ([2]; first compound 0.1581 µM): 0.279
- relative viability ([2]; first compound 0.5 µM): 0.237
- relative viability ([2]; first compound 1.581 µM): 0.248
- relative viability ([2]; first compound 5 µM): 0.183
- relative viability ([3]; first compound 0.05 µM): 0.819
- relative viability ([3]; first compound 0.1581 µM): 0.709
- relative viability ([3]; first compound 0.5 µM): 0.485
- relative viability ([3]; first compound 1.581 µM): 0.28
- relative viability ([3]; first compound 5 µM): 0.211

Cell Line: SK-MES-1
- relative viability ([1]; first compound 0.05 µM): 1.05
- relative viability ([1]; first compound 0.1581 µM): 0.755
- relative viability ([1]; first compound 0.5 µM): 0.651
- relative viability ([1]; first compound 1.581 µM): 0.351
- relative viability ([1]; first compound 5 µM): 0.258
- relative viability ([2]; first compound 0.05 µM): 0.621
- relative viability ([2]; first compound 0.1581 µM): 0.562
- relative viability ([2]; first compound 0.5 µM): 0.416
- relative viability ([2]; first compound 1.581 µM): 0.244
- relative viability ([2]; first compound 5 µM): 0.16
- relative viability ([3]; first compound 0.05 µM): 0.909
- relative viability ([3]; first compound 0.1581 µM): 1.04
- relative viability ([3]; first compound 0.5 µM): 0.946
- relative viability ([3]; first compound 1.581 µM): 0.867
- relative viability ([3]; first compound 5 µM): 0.566

Cell Line: NCI-H1792
- relative viability ([4]; first compound 0.05 µM): 0.613
- relative viability ([4]; first compound 0.1581 µM): 1.3
- relative viability ([4]; first compound 0.5 µM): 0.729
- relative viability ([4]; first compound 5 µM): 0.412
- relative viability ([1]; first compound 0.05 µM): 0.847
- relative viability ([1]; first compound 0.1581 µM): 1.19
- relative viability ([1]; first compound 0.5 µM): 0.795
- relative viability ([1]; first compound 5 µM): 0.55
- relative viability ([2]; first compound 0.1581 µM): 0.91
- relative viability ([2]; first compound 0.5 µM): 0.677
- relative viability ([2]; first compound 1.581 µM): 0.574
- relative viability ([2]; first compound 5 µM): 0.719

Cell Line: SW 1573
- relative viability ([1]; first compound 0.05 µM): 1
- relative viability ([1]; first compound 0.1581 µM): 0.759
- relative viability ([1]; first compound 0.5 µM): 0.832
- relative viability ([1]; first compound 1.581 µM): 0.526
- relative viability ([1]; first compound 5 µM): 0.824
- relative viability ([2]; first compound 0.05 µM): 0.547
- relative viability ([2]; first compound 0.1581 µM): 0.745
- relative viability ([2]; first compound 0.5 µM): 0.606
- relative viability ([2]; first compound 1.581 µM): 0.505
- relative viability ([2]; first compound 5 µM): 0.465
- relative viability ([3]; first compound 0.05 µM): 0.97
- relative viability ([3]; first compound 0.1581 µM): 1.09
- relative viability ([3]; first compound 0.5 µM): 0.865
- relative viability ([3]; first compound 1.581 µM): 0.848
- relative viability ([3]; first compound 5 µM): 1.01

Cell Line: A549
- relative viability ([3]; first compound 0.05 µM): 1.03
- relative viability ([3]; first compound 0.1581 µM): 1.2
- relative viability ([3]; first compound 0.5 µM): 0.93
- relative viability ([3]; first compound 1.581 µM): 0.664
- relative viability ([3]; first compound 5 µM): 0.711

Cell Line: NCI-H1703
- relative viability ([4]; first compound 0.05 µM): 0.0942
- relative viability ([4]; first compound 0.1581 µM): 0.119
- relative viability ([4]; first compound 0.5 µM): 0.139
- relative viability ([4]; first compound 1.581 µM): 0.102
- relative viability ([4]; first compound 5 µM): 0.098
- relative viability ([3]; first compound 0.05 µM): 0.334
- relative viability ([3]; first compound 0.1581 µM): 0.288
- relative viability ([3]; first compound 0.5 µM): 0.337
- relative viability ([3]; first compound 1.581 µM): 0.196
- relative viability ([3]; first compound 5 µM): 0.178

Cell Line: NCI-H520
- relative viability ([1]; first compound 0.05 µM): 0.596
- relative viability ([1]; first compound 0.1581 µM): 0.584
- relative viability ([1]; first compound 0.5 µM): 0.554
- relative viability ([1]; first compound 1.581 µM): 0.452
- relative viability ([1]; first compound 5 µM): 0.296
- relative viability ([2]; first compound 0.05 µM): 0.214
- relative viability ([2]; first compound 0.1581 µM): 0.215
- relative viability ([2]; first compound 0.5 µM): 0.269
- relative viability ([2]; first compound 1.581 µM): 0.265
- relative viability ([2]; first compound 5 µM): 0.288
- relative viability ([3]; first compound 0.05 µM): 0.671
- relative viability ([3]; first compound 0.1581 µM): 0.836
- relative viability ([3]; first compound 0.5 µM): 0.751
- relative viability ([3]; first compound 1.581 µM): 0.664
- relative viability ([3]; first compound 5 µM): 0.58

Cell Line: NCI-H1563
- relative viability ([1]; first compound 0.05 µM): 0.754
- relative viability ([1]; first compound 0.1581 µM): 0.647
- relative viability ([1]; first compound 0.5 µM): 0.782
- relative viability ([1]; first compound 1.581 µM): 0.753
- relative viability ([1]; first compound 5 µM): 0.532
- relative viability ([2]; first compound 0.05 µM): 0.737
- relative viability ([2]; first compound 0.1581 µM): 0.779
- relative viability ([2]; first compound 0.5 µM): 0.691
- relative viability ([2]; first compound 1.581 µM): 0.711
- relative viability ([2]; first compound 5 µM): 0.703
- relative viability ([3]; first compound 0.05 µM): 0.939
- relative viability ([3]; first compound 0.1581 µM): 1.02
- relative viability ([3]; first compound 0.5 µM): 0.841
- relative viability ([3]; first compound 1.581 µM): 0.921
- relative viability ([3]; first compound 5 µM): 0.875

Cell Line: NCI-H2009
- relative viability ([1]; first compound 0.05 µM): 1.01
- relative viability ([1]; first compound 0.1581 µM): 1.02
- relative viability ([1]; first compound 0.5 µM): 0.99
- relative viability ([1]; first compound 1.581 µM): 0.895
- relative viability ([1]; first compound 5 µM): 0.683
- relative viability ([2]; first compound 0.05 µM): 0.681
- relative viability ([2]; first compound 0.1581 µM): 0.709
- relative viability ([2]; first compound 0.5 µM): 0.534
- relative viability ([2]; first compound 1.581 µM): 0.515
- relative viability ([2]; first compound 5 µM): 0.422
- relative viability ([3]; first compound 0.05 µM): 1.24
- relative viability ([3]; first compound 0.1581 µM): 1.32
- relative viability ([3]; first compound 0.5 µM): 1.05
- relative viability ([3]; first compound 1.581 µM): 1.16
- relative viability ([3]; first compound 5 µM): 1.14
